Data taken from ChEMBL document CHEMBL1136674, “Antimycobacterial pimarane diterpenes from the Fungus Diaporthe sp” (Bioorg Med Chem Lett, 2003).
≈ marks a conversion by molar mass, not a printed value.

What was measured:
[1] = tested on: Mycobacterium tuberculosis; experiment: Antitubercular activity against Mycobacterium tuberculosis; assay type: functional
Vero = experiment: Cytotoxicity against vero cell line; assay type: functional, cell-based; conditions: Chlorocebus sabaeus
BC1 cell line = experiment: Cytotoxicity against BC-1 cell line; assay type: functional, cell-based; conditions: Homo sapiens
KB = experiment: Cytotoxicity against KB cell line; assay type: functional, cell-based; conditions: Homo sapiens

SMILES	MIC [1]	IC50 (Vero)	IC50 (BC1 cell line)	IC50 (KB)
C=C[C@]1(C)C=C2C(O)[C@]3(O)OC[C@@]4(CCCC(C)(C)[C@@]43O)[C@@]2(O)[C@H](O)C1 (stereo partly drawn) [DIAPORTHEIN A]	200 µg/mL (≈ 546 µM)	> 50 µg/mL	–	–
C=C[C@]1(C)C=C2C(=O)[C@]3(O)OC[C@@]4(CCCC(C)(C)[C@@]43O)[C@@]2(O)[C@H](O)C1 [DIAPORTHEIN B]	3.1 µg/mL (≈ 8.51 µM)	1.5 µg/mL (≈ 4.12 µM)	–	–
Cc1c2ccncc2c(C)c2c1[nH]c1ccccc12 [ELLIPTECINE]	–	–	0.3 µg/mL (≈ 1.22 µM)	0.3 µg/mL (≈ 1.22 µM)
NNC(=O)c1ccncc1 [ISONIAZID]	0.09 µg/mL (≈ 0.656 µM)	–	–	–
NC[C@H]1O[C@H](O[C@H]2[C@H](O)[C@@H](O[C@H]3O[C@H](CO)[C@@H](O)[C@H](N)[C@H]3O)[C@H](N)C[C@@H]2N)[C@H](O)[C@@H](O)[C@@H]1O.O=S(=O)(O)O [KANAMYCIN SULFATE]	5 µg/mL	–	–	–
